Test results from paper PMC3288053 (PLoS ONE, 2012).

Key:
[1] = test system: 3T3-L1 adipocytes; assay: 2-Deoxyglucose uptake in 3T3-L1 adipocytes; type: cell-based
Method: 3T3-L1 adipocytes are fully differentiated (the 10th day after MDI stimulation) and seeded into 24-well plate. After incubation with compounds in serum-free medium containing 0.5% BSA for 8 hours, medium is changed to Krebs buffer containing […] insulin and incubated for 30 minutes. In the last 5 minutes, cells are incubated with 2-[^3H]-deoxy-D-glucose. The glucose uptake is stopped by ice-cold PBS, and the cells are then lysed with 0.1% Triton. Finally the radioactivity is calculated by a scintillation counter. Cytochalasin B is used to measure nonspecific uptake, and the value is subtracted from all the data. Radioactivity is normalized by total protein concentration that is measured by BCA kit.

[2] = test system: GLUT4 promoter; assay: GLUT4 promoter luciferase assay with rxrα or pparγ siRNA; type: cell-based; settings: Rut 20 µM
Method: HEK293 cells are transfected with luciferase reporter plus Renilla luciferase vector and other plasmids if needed for 5 hours, and cells are then incubated with indicated concentrations of compounds for another 24 h. Finally cells are lysed and luciferase activities are measured using Dual Luciferase Assay System kit. The results are presented as the fold activation relative to untreated cells after normalization with Renilla luciferase values. Each experiment is repeated at least twice, with each sample analyzed in triplicates.

[3] = test system: C57/BL6 DIO male mice; assay: Diet-induced obese (DIO) mice model: fasting plasma glucose, OGTT, ITT, tolerability; type: in vivo
Method: All animals receive humane care, and the experimental procedures are performed according to the institutional ethical guidelines on animal care. C57/BL6 male mice are obtained from Shanghai SLAC Laboratory Animal Co. Ltd, and maintained under the temperature controlled at 25°C with a 12 h light-dark cycle. Eight-week-old male mice are fed regular chow or high fat diet (HFD, D12492i, from Research Diets Inc.) for 12 weeks. The DIO mice and normal lean mice are grouped randomly, and each group contains 7 mice. […] Individual body weight and fasting plasma glucose are measured weekly. Averaged daily food intake is measured twice a week. At the termination of the study, mice are dissected, and the weight of tissues (liver, kidney, spleen, heart, perirenal fat, and epididymis fat) is determined.
Male mice treated with compounds for 8 weeks are used for oral glucose tolerance test. After 6 h fasting, plasma glucose levels are measured and glucose (2 g/kg) is loaded. Blood samples are taken from the tail vein at different time points (0, 30, 90, and 120 min). In insulin tolerance tests, after 6 h fasting, plasma glucose levels are measured and insulin (1 U/kg) is administered by IP injection. Blood samples are taken at indicated time points (0, 15, 30, 45, 60, 90, and 120 min). Blood glucose levels are measured by ACCU-CHEK Active blood sugar testmeter (Roche). Statistical evaluation is performed via two-way ANOVA. Significant difference at P<0.05: *, P<0.01: **.

[4] = test system: 3T3-L1 adipocytes; assay: GLUT4 translocation by immunofluorescence in 3T3-L1 adipocytes; type: cell-based; settings: Rut 20 µM, insulin 17 nM
Method: For GLUT4 translocation assay in 3T3-L1 adipocytes, the cells are fully differentiated (the 10th day after MDI stimulation), and seeded onto 24-well plates. After cultured in serum-free medium for 8 h, cells are incubated with Rut for 2 h and insulin for 10 min, and then rinsed with PBS, fixed with 4% formaldehyde for 10 min, and permeated with 0.2% Triton X-100 in PBS for 10 min. Cells are subsequently washed with PBS and 3% bovine serum albumin for 20 min, and sequentially incubated with primary antibody (Abcam GLUT4 antibody) for 1 h and secondary antibody (Alexa Fluor 488 conjuncted anti-mouse antibody) for another 1 h. Finally, the glass-slips are washed with PBS for examination using OLYMPUS FV-1000 confocal microscope. All pictures are made in the same time experiment.

[5] = molecular target: T1, PPARγ-LBD/SRC1_613–773 interaction (Homo sapiens, UniProt P37231); assay: SPR SRC1 recruitment assay; type: binding; settings: 1 µM PPARγ-LBD incubated with compound 1 hour
T1 construct: pET15b-PPARγ-LBD202–477; His-tag (N); made in house; host or cells: E. coli BL21 (DE3)
T1 sequence (P37231 230-505): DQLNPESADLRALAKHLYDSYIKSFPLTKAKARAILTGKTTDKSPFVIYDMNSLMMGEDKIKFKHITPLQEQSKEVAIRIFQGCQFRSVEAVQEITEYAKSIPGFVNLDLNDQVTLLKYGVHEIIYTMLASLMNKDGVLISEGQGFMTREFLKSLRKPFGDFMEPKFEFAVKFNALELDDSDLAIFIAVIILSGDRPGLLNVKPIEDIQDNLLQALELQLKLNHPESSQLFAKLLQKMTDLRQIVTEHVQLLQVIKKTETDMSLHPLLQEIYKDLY
T1 sequence (Q15788 613-773 partner limits assumed): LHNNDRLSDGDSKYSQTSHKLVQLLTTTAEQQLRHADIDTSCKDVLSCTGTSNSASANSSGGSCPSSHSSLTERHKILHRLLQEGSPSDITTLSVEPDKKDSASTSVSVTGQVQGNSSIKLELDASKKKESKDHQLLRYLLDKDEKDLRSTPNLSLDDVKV
Method: Binding affinities of Rut towards proteins are analyzed using SPR technology based Biacore 3000 instrument (GE Healthcare). In the assay, proteins are immobilized to CM5 chips using a standard amine-coupling procedure (Biacore manual). The proteins to be covalently bound to the chips are diluted in 10 mM sodium acetate buffer (pH4.5) to a final concentration of 0.10 mg/ml. Before experiments, baseline is equilibrated with a continuous flow of running buffer (10 mM HEPES, 150 mM NaCl, 3 mM EDTA, and 0.005% (v/v) surfactant P20, pH7.4) for 2 hours. Subsequently, Rut with a gradient of concentrations is injected to the channels at a flow rate of 20 µL/min for 60 seconds, followed by disassociation for 120 seconds. The 1∶1 Langmuir binding fitting model in BIAevaluation software version 3.1 (Biacore) is used to determine the equilibrium dissociation constants (K Ds) of compounds. […] Different concentrations of PPARγ-LBD or RXRα-LBD are injected to the channel at a flow rate of 20 µL/min for 60 s, followed by disassociation for 120 s.

[6] = test system: epididymis fat tissues; assay: Gene and protein expression in epididymis fat tissues of treated DIO mice; type: in vivo
Method: Four mice in each group are employed for the determination of gene expression. The total RNA is extracted from epididymis fat tissues (75 mg/mice) with TRIzol reagent, and the cDNA is synthesized using PrimeScript™ RT reagent Kit. Real-time PCR is performed using SYBR Green Real time PCR master mix on DNA Engine Opticon 2 System. The PCR cycle is 94°C for 20 seconds, 60°C for 30 seconds and 72°C for 30 seconds. The primer pairs for the related genes are described in Supplementary Table S2. The epididymis fat is lysed and the supernatant is separated by SDS-PAGE and transferred to polyvinylidene difluoride membranes (Millipore). Membranes are incubated in blocking buffer (BB) containing 5% skimmed milk with 0.5% Tween 20 in Tris-buffered saline and immunoblotted with the related antibodies overnight at 4°C in BB. After incubation, membranes are washed and incubated with horseradish peroxidase-labeled secondary antibodies (Amersham), and then the proteins are detected by SuperSignal West Pico chemiluminescent substrate (Pierce).

With `C=CC(C)(C)c1cc2cc3c(cc2oc1=O)O[C@H](C(C)(C)OC(C)=O)C3` [(+)-Rutamarin] the “glucose uptake without insulin stimulation” value ([1]; Rut 20 µM, 8 hours) was “improves glucose uptake”, the insulin-induced glucose uptake ([1]; insulin 17 nM, Rut 5–25 µM, C2 10 µM) was “dose-dependently enhances” and the “Relative glut4-pro activity” value ([2]; Fig. 6b, pSuperbasic control vector) was 1.31 X. The “Relative glut4-pro activity” value ([2]; Fig. 6b, pSuperbasic-RXRα (rxrα siRNA)) was 0.98 X, the “Relative glut4-pro activity” value ([2]; Fig. 6c, pSuperbasic control vector) was 1.55 X and the “Relative glut4-pro activity” value ([2]; Fig. 6c, pSuperbasic-PPARγ (pparγ siRNA)) was 1.39 X. For the same compound, the “fasting plasma glucose level” value ([3]; DIO mice, Rut 2 mg/kg IP, 2 weeks) was “efficiently improve”, the “fasting plasma glucose vs control obese group” value ([3]; DIO mice, Rut 10 mg/kg IP daily, 8 weeks) was “significantly lower” and the “insulin tolerance test, glucose elimination vs vehicle” value ([3]; DIO mice, Rut 10 mg/kg, insulin 1 U/kg IP) was “eliminate glucose at a faster rate”. The “plasma glucose after glucose challenge (glucose tolerance test) vs vehicle” value ([3]; DIO mice, Rut 10 mg/kg, oral glucose 2 g/kg) was “much lower”, the “food consumption vs vehicle-treated mice” value ([3]; Rut 10 mg/kg IP) was “not significantly different” and the body weights ([3]; Rut 10 mg/kg IP, same course in vehicle-treated mice) was “slightly decrease in the first four weeks”. For the same compound, the “insulin tolerance test vs vehicle” value ([3]; lean mice, Rut 10 mg/kg) was “no obvious difference”, the “fasting plasma glucose vs vehicle” value ([3]; lean mice, Rut 10 mg/kg IP daily, 8 weeks) was “no obvious difference” and the “GLUT4 translocation in fully differentiated 3T3-L1 adipocytes” value [4] was “significantly induces”. For the same compound, the “effect on interaction between PPARγ-LBD and SRC1” value [5] was “cannot enhance”, the “insulin receptor (IR) phosphorylation in epididymis fat tissues” value ([6]; Rut 2 mg/kg IP, 2 weeks) was “efficiently improve” and the “mRNA levels of PPARγ:RXRα-regulated genes (pepck, GLUT4 and adiponectin)” value ([6]; Rut 10 mg/kg, epididymis fat tissues) was “efficiently increase”. The “GLUT4 expression in epididymis fat tissues” value ([6]; Rut 2 and 10 mg/kg) was “increases GLUT4 expression”.
